Experimental data published in patent US5210193A, “Piperazine derivatives” (American Cyanamid Company, priority 1990, dated 1993).
Values after ≈ are worked out from the molar mass of the structure shown.

Tests used:
Experiment in all cases: in vitro antibacterial MIC, agar plate dilution
Type in all cases: cell-based
Citrobacter div. K 82-24 = conditions: Citrobacter, DIV.K8224, 18 h, 35° C., read-out: MIC
Method in brief: (§1)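 Minimal inhibitory concentrations came from agar plate dilution in Mueller-Hinton medium. Each organism was delivered at roughly 10^4 CFU by Steers replicator. Plates were read for visible growth after 18 hours at 35° C, values in mcg/ml.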

[1] = tested on: Enterobacter cloacae K 84-10; conditions: Enterobacter cloacae, K8410, 18 h, 35° C., read-out: MIC
Method in brief: as §1

[2] = tested on: Enterobacter cloacae VGH 84-39; conditions: Enterobacter cloacae, VGH8439, 18 h, 35° C., read-out: MIC
Method in brief: as §1

[3] = tested on: Escherichia coli ATCC 25922; conditions: Escherichia coli, ATCC25922, 18 h, 35° C., read-out: MIC
Method in brief: as §1

[4] = tested on: Escherichia coli CMC 84-11; conditions: Escherichia coli, CMC8411, 18 h, 35° C., read-out: MIC
Method in brief: as §1

Escherichia coli LL 311 = conditions: Escherichia coli, LL311, 18 h, 35° C., read-out: MIC
Method in brief: as §1

[5] = tested on: Escherichia coli MOR 84-20; conditions: Escherichia coli, MOR8420, 18 h, 35° C., read-out: MIC
Method in brief: as §1

[6] = tested on: Escherichia coli VGH 84-19; conditions: Escherichia coli, VGH8419, 18 h, 35° C., read-out: MIC
Method in brief: as §1

[7] = tested on: Klebsiella pneumoniae CMC 84-31; conditions: Klebsiella pneumoniae, CMC8431, 18 h, 35° C., read-out: MIC
Method in brief: as §1

[8] = tested on: Klebsiella pneumoniae IO 83-5; conditions: Klebsiella pneumoniae, IO835, 18 h, 35° C., read-out: MIC
Method in brief: as §1

[9] = tested on: Klebsiella pneumoniae MOR 84-24; conditions: Klebsiella pneumoniae, MOR8424, 18 h, 35° C., read-out: MIC
Method in brief: as §1

[10] = tested on: Morganella morganii CMC 84-38; conditions: Morganella morganii, CMC8438, 18 h, 35° C., read-out: MIC
Method in brief: as §1

[11] = tested on: Morganella morganii MOR 84-45; conditions: Morganella morganii, MOR8445, 18 h, 35° C., read-out: MIC
Method in brief: as §1

[12] = tested on: Morganella morganii VHG 84-12; conditions: Morganella morganii, VHG8412, 18 h, Morganella morganii VHG 84-12 (VGH 84-12 for Example 131), 35° C., read-out: MIC
Method in brief: as §1

[13] = tested on: Proteus rettgeri CMC 84-41; conditions: Providencia rettgeri, CMC8441, 18 h, 35° C., read-out: MIC
Method in brief: as §1

[14] = tested on: Proteus rettgeri IO 83-21; conditions: Providencia rettgeri, IO8321, 18 h, 35° C., read-out: MIC
Method in brief: as §1

[15] = tested on: Providencia stuarti CMC 83-3; conditions: Providencia, CMC833, 18 h, 35° C., read-out: MIC
Method in brief: as §1

[16] = tested on: Pseudomonas aeruginosa CMC 83-20; conditions: Pseudomonas aeruginosa, CMC8320, 18 h, 35° C., read-out: MIC
Method in brief: as §1

[17] = tested on: Pseudomonas aeruginosa K 84-16; conditions: Pseudomonas aeruginosa, K8416, 18 h, 35° C., read-out: MIC
Method in brief: as §1

[18] = tested on: Pseudomonas aeruginosa LL-1244; conditions: Pseudomonas aeruginosa, LL1244, 18 h, 35° C., read-out: MIC
Method in brief: as §1

[19] = tested on: Pseudomonas aeruginosa VGH 84-3; conditions: Pseudomonas aeruginosa, VGH843, 18 h, 35° C., read-out: MIC
Method in brief: as §1

[20] = tested on: Pseudomonas aeruginosa VGH 84-4; conditions: Pseudomonas aeruginosa, VGH844, 18 h, 35° C., read-out: MIC
Method in brief: as §1

[21] = tested on: Serratia marcescens CMC 83-74; conditions: Serratia marcescens, CMC8374, 18 h, 35° C., read-out: MIC
Method in brief: as §1

[22] = tested on: Serratia marcescens IO 83-63; conditions: IO8363, 18 hours, 35° C.
Method in brief: as §1

[23] = tested on: Serratia marcescens MOR 84-41; conditions: Serratia marcescens, MOR8441, 18 h, 35° C., read-out: MIC
Method in brief: as §1

[24] = tested on: Serratia marcescens VGH 84-30; conditions: Serratia marcescens, VGH8430, 18 h, 35° C., read-out: MIC
Method in brief: as §1

[25] = tested on: Staphylococcus aureus CMC 83-131; conditions: Staphylococcus aureus, CMC83131, 18 h, 35° C., read-out: MIC
Method in brief: as §1

[26] = tested on: Staphylococcus aureus Smith; conditions: Staphylococcus aureus, 18 h, 35° C., read-out: MIC
Method in brief: as §1

[27] = tested on: Staphylococcus aureus VGH 84-45; conditions: Staphylococcus aureus, VGH8445, 18 h, 35° C., read-out: MIC
Method in brief: as §1

[28] = tested on: Streptococcus faecalis UCI 85-19; conditions: Enterococcus faecalis, UCI8519, 18 h, 35° C., read-out: MIC
Method in brief: as §1

[29] = tested on: Streptococcus faecalis UCI 85-30; conditions: Enterococcus faecalis, UCI8530, 18 h, 35° C., read-out: MIC
Method in brief: as §1

[30] = tested on: Streptococcus faecalis VGH 84-69; conditions: Enterococcus faecalis, VGH8469, 18 h, 35° C., read-out: MIC
Method in brief: as §1

Row | Compound | MIC (Citrobacter div. K 82-24) [µg/mL] | MIC [1] [µg/mL] | MIC [2] [µg/mL] | MIC [3] [µg/mL] | MIC [4] [µg/mL] | MIC (Escherichia coli LL 311) [µg/mL] | MIC [5] [µg/mL] | MIC [6] [µg/mL] | MIC [7] [µg/mL] | MIC [8] [µg/mL] | MIC [9] [µg/mL] | MIC [10] [µg/mL] | MIC [11] [µg/mL] | MIC [12] [µg/mL] | MIC [13] [µg/mL] | MIC [14] [µg/mL] | MIC [15] [µg/mL] | MIC [16] [µg/mL] | MIC [17] [µg/mL] | MIC [18] [µg/mL] | also measured
1 | CCn1cc(C(=O)O)c(=O)c2cc(F)c(N3CCN(C)C(c4ccnn4C)C3)cc21 (stereo not drawn) [Example 110, 1-Ethyl-6-fluoro-1,4-dihydro-7-[4-methyl-3-(1-methyl-1H-pyrazol-5-yl) -1-piperazinyl]-4-oxo-3-quinolinecarboxylic acid] | 8 (≈ 19.3 µM) | 4 (≈ 9.67 µM) | 8 (≈ 19.3 µM) | 1 (≈ 2.42 µM) | 2 (≈ 4.84 µM) | 2 (≈ 4.84 µM) | 4 (≈ 9.67 µM) | 4 (≈ 9.67 µM) | 8 (≈ 19.3 µM) | 16 (≈ 38.7 µM) | 16 (≈ 38.7 µM) | 8 (≈ 19.3 µM) | 8 (≈ 19.3 µM) | > 16 | 4 (≈ 9.67 µM) | 16 (≈ 38.7 µM) | > 16 | > 16 | > 16 | 128 (≈ 310 µM) | MIC [19]: > 16 µg/mL; MIC [20]: 128 µg/mL (≈ 310 µM); MIC [21]: > 16 µg/mL; MIC [22]: > 16 µg/mL; MIC [23]: > 16 µg/mL; MIC [24]: > 128 µg/mL; MIC [25]: 2 µg/mL (≈ 4.84 µM); MIC [26]: 0.25 µg/mL (≈ 0.605 µM); MIC [27]: 0.5 µg/mL (≈ 1.21 µM); MIC [28]: 8 µg/mL (≈ 19.3 µM); MIC [29]: > 16 µg/mL; MIC [30]: 16 µg/mL (≈ 38.7 µM)
2 | O=C(O)c1cn(C2CC2)c2cc(N3CCNC(CF)C3)c(F)cc2c1=O (stereo not drawn) [Example 131, 1-Cyclopropyl-6-fluoro-7-[3-(fluoromethyl)-1-piperazinyl]-1,4-dihydro-4-oxo-3-quinolinecarboxylic acid] | 0.06 (≈ 0.165 µM) | 0.03 (≈ 0.0826 µM) | 0.06 (≈ 0.165 µM) | 0.015 (≈ 0.0413 µM) | 0.015 (≈ 0.0413 µM) | 0.015 (≈ 0.0413 µM) | 0.03 (≈ 0.0826 µM) | 0.03 (≈ 0.0826 µM) | 0.06 (≈ 0.165 µM) | 0.12 (≈ 0.33 µM) | 0.12 (≈ 0.33 µM) | 0.06 (≈ 0.165 µM) | 0.12 (≈ 0.33 µM) | 0.12 (≈ 0.33 µM) | 0.06 (≈ 0.165 µM) | 0.12 (≈ 0.33 µM) | 16 (≈ 44 µM) | 1 (≈ 2.75 µM) | 1 (≈ 2.75 µM) | 2 (≈ 5.5 µM) | MIC [19]: 8 µg/mL (≈ 22 µM); MIC [20]: 1 µg/mL (≈ 2.75 µM); MIC [21]: 4 µg/mL (≈ 11 µM); MIC [22]: 0.5 µg/mL (≈ 1.38 µM); MIC [23]: 0.12 µg/mL (≈ 0.33 µM); MIC [24]: 2 µg/mL (≈ 5.5 µM); MIC [25]: 1 µg/mL (≈ 2.75 µM); MIC [26]: 0.06 µg/mL (≈ 0.165 µM); MIC [27]: 0.25 µg/mL (≈ 0.688 µM); MIC [28]: 2 µg/mL (≈ 5.5 µM); MIC [29]: 2 µg/mL (≈ 5.5 µM); MIC [30]: 1 µg/mL (≈ 2.75 µM)
3 | CCn1cc(C(=O)O)c(=O)c2cc(F)c(N3CCN(C)C(c4ccn(C)n4)C3)cc21 (stereo not drawn) [Example 109, 1-Ethyl-6-fluoro-1,4-dihydro-7-[4-methyl-3-(1-methyl-1H-pyrazol-3-yl) -1-piperazinyl]-4-oxo-3-quinolinecarboxylic acid] | > 16 | 16 (≈ 38.7 µM) | > 16 | 8 (≈ 19.3 µM) | 16 (≈ 38.7 µM) | 8 (≈ 19.3 µM) | > 16 | > 16 | > 16 | > 16 | > 16 | > 16 | > 16 | > 16 | 32 (≈ 77.4 µM) | > 16 | > 16 | > 16 | > 16 | > 128 | MIC [19]: > 16 µg/mL; MIC [20]: > 128 µg/mL; MIC [21]: > 16 µg/mL; MIC [22]: > 16 µg/mL; MIC [23]: > 16 µg/mL; MIC [24]: > 128 µg/mL; MIC [25]: 2 µg/mL (≈ 4.84 µM); MIC [26]: 0.25 µg/mL (≈ 0.605 µM); MIC [27]: 0.5 µg/mL (≈ 1.21 µM); MIC [28]: 16 µg/mL (≈ 38.7 µM); MIC [29]: > 16 µg/mL; MIC [30]: > 16 µg/mL
